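The compound was tested at five concentrations on cells cultured in 96-well plates, with a 48-hour exposure period. TGI is the concentration that stops growth completely.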
What was measured:
Assay in all cases: NCI tumour cell line growth inhibition, 48 h
[1] = test system: 786-0 renal
[2] = test system: A498 renal
[3] = test system: A549 NSCLC
[4] = test system: ACHN renal
[5] = test system: DU-145 prostate
[6] = test system: HCT-15 colon
[7] = test system: HL-60(TB) leukemia
[8] = test system: HT29 colon
[9] = test system: KM12 colon
[10] = test system: M14 melanoma
[11] = test system: MALME-3M melanoma
[12] = test system: MOLT-4 leukemia
[13] = test system: NCI-H23 lung
[14] = test system: OVCAR-4 ovarian
[15] = test system: OVCAR-8 ovarian
[16] = test system: SF-295 CNS
[17] = test system: SNB-75 CNS
[18] = test system: UO-31 renal
[19] = test system: HCC-2998 colon
[20] = test system: NCI-H522 lung

SMILES	TGI [1]	TGI [2]	TGI [3]	TGI [4]	TGI [5]	TGI [6]	TGI [7]	TGI [8]	TGI [9]	TGI [10]	TGI [11]	TGI [12]	TGI [13]	TGI [14]	TGI [15]	TGI [16]	TGI [17]	TGI [18]	TGI [19]	TGI [20]
Cc1c(CCN2CCOCC2)c(N2CCOCC2)n2c(nc3ccccc32)c1C#N	> 10 µM	> 10 µM	> 10 µM	> 10 µM	> 10 µM	> 10 µM	> 10 µM	> 10 µM	> 10 µM	> 10 µM	> 10 µM	> 10 µM	> 10 µM	> 10 µM	> 10 µM	> 10 µM	> 10 µM	> 10 µM	–	–
C=CC1CCC[N+]1(CC(=O)OCC)Cc1ccccc1 (configuration not stated)	> 100 µM	> 100 µM	> 100 µM	> 100 µM	> 100 µM	> 100 µM	> 100 µM	> 100 µM	–	> 100 µM	> 100 µM	> 100 µM	> 100 µM	> 100 µM	> 100 µM	> 100 µM	> 100 µM	> 100 µM	> 100 µM	–
C/C(=N\n1c(Cc2ccccc2)n[nH]c1=O)c1ccccc1	> 100 µM	> 100 µM	> 100 µM	> 100 µM	> 100 µM	> 100 µM	> 100 µM	> 100 µM	> 100 µM	> 100 µM	> 100 µM	> 100 µM	> 100 µM	> 100 µM	> 100 µM	–	–	> 100 µM	–	> 100 µM
N#CC1C(=O)SC2c3ccccc3C(=O)c3ccccc3C12 (configuration not stated)	> 10 µM	> 10 µM	> 10 µM	> 10 µM	> 10 µM	> 10 µM	> 10 µM	> 10 µM	> 10 µM	> 10 µM	> 10 µM	> 10 µM	> 10 µM	> 10 µM	> 10 µM	> 10 µM	> 10 µM	> 10 µM	> 10 µM	–
COC(=O)[C@]12CC[C@H]3CC[C@H]([C@H]31)[C@H](c1ccccc1)N2	29.4 µM	31.9 µM	37.3 µM	31.4 µM	47.8 µM	38.4 µM	47.6 µM	29.5 µM	39.8 µM	32.7 µM	–	56.5 µM	37.2 µM	31.6 µM	37 µM	32.3 µM	58.1 µM	31.2 µM	26.8 µM	37.7 µM
COc1ccc(S(=O)(=O)NC(CCC(=O)NN)C(=O)NN)cc1 (configuration not stated)	> 100 µM	> 100 µM	> 100 µM	> 100 µM	> 100 µM	> 100 µM	> 100 µM	> 100 µM	> 100 µM	> 100 µM	> 100 µM	> 100 µM	> 100 µM	> 100 µM	> 100 µM	> 100 µM	> 100 µM	> 100 µM	–	> 100 µM
O=C(CC(C(=O)c1cccs1)c1cccs1)c1ccsc1 (configuration not stated)	> 100 µM	> 100 µM	> 100 µM	> 100 µM	> 100 µM	> 100 µM	95 µM	> 100 µM	> 100 µM	> 100 µM	> 100 µM	> 100 µM	> 100 µM	> 100 µM	> 100 µM	–	> 100 µM	> 100 µM	> 100 µM	–
Nc1nc2c(c(=O)[nH]1)C(c1ccccc1)CC(=O)N2 (configuration not stated)	> 100 µM	> 100 µM	> 100 µM	> 100 µM	> 100 µM	> 100 µM	–	> 100 µM	> 100 µM	> 100 µM	> 100 µM	> 100 µM	> 100 µM	> 100 µM	> 100 µM	> 100 µM	> 100 µM	> 100 µM	> 100 µM	–
Clc1ccc(OCc2nnc(CCCCCCCCc3nnc(COc4ccc(Cl)cc4Cl)n3Nc3ccccc3)n2Nc2ccccc2)c(Cl)c1	31.2 µM	55.6 µM	64.4 µM	46.1 µM	> 62.7 µM	35 µM	–	35.8 µM	25.6 µM	29.2 µM	40.6 µM	> 100 µM	51 µM	59.5 µM	50.3 µM	17.3 µM	70.3 µM	40 µM	20.8 µM	24.7 µM
CN=c1c2c(c3[nH]c4ccccc4c4cnc1c34)NCCC2=O	> 10 µM	> 10 µM	> 10 µM	> 10 µM	> 10 µM	> 10 µM	–	> 10 µM	> 10 µM	> 10 µM	> 10 µM	> 10 µM	> 10 µM	> 10 µM	> 10 µM	> 10 µM	> 10 µM	> 10 µM	> 10 µM	> 10 µM
CN(C)CCCNc1ccc2c(=O)n(CCN(C)C)c(=O)n3c4ccccc4c(=O)c1c23	0.752 µM	5.35 µM	10.5 µM	1.47 µM	0.511 µM	1.13 µM	–	0.907 µM	1.4 µM	1.59 µM	3.99 µM	–	1.19 µM	4.35 µM	3.59 µM	1.69 µM	7.51 µM	2.08 µM	0.267 µM	0.385 µM
Cc1cc(C)c(S(=O)(=O)N2CCCN(S(=O)(=O)c3c(C)cc(C)cc3C)OCCCO2)c(C)c1	> 100 µM	> 100 µM	> 100 µM	> 100 µM	> 100 µM	> 100 µM	> 100 µM	> 100 µM	> 100 µM	> 100 µM	> 100 µM	> 100 µM	> 100 µM	> 100 µM	> 100 µM	> 100 µM	> 100 µM	> 100 µM	–	> 100 µM
Cc1ccc(N2C(=O)C=C(C3=C(O)C(=O)N(c4ccc(C)cc4)C3=O)C2=O)cc1	> 100 µM	> 100 µM	> 100 µM	> 100 µM	> 100 µM	> 100 µM	> 100 µM	> 100 µM	–	> 100 µM	> 100 µM	> 100 µM	> 100 µM	> 100 µM	> 100 µM	> 100 µM	> 100 µM	> 100 µM	> 100 µM	–
CCCCCCc1ccc(C(=O)NO)cc1	46.6 µM	81.7 µM	> 100 µM	88.5 µM	68.4 µM	> 100 µM	53.8 µM	> 100 µM	> 100 µM	> 100 µM	–	50 µM	> 100 µM	84.4 µM	35.6 µM	> 100 µM	> 100 µM	48.7 µM	> 100 µM	80.4 µM
COc1cc(S(=O)(=O)Nc2nc(-c3ccc(N4C(=O)/C(=C/C=C/c5ccccc5)N=C4c4ccccc4)cc3)cs2)ccc1Cl	> 100 µM	> 100 µM	> 100 µM	> 100 µM	> 100 µM	> 100 µM	> 100 µM	> 100 µM	> 100 µM	> 100 µM	> 100 µM	> 100 µM	> 100 µM	> 100 µM	> 100 µM	> 100 µM	> 100 µM	> 100 µM	–	> 100 µM
CC12CCC(C(Nc3cc(C(F)(F)F)cc(C(F)(F)F)c3)C1=O)C2(C)C (configuration not stated)	> 100 µM	> 100 µM	> 100 µM	> 100 µM	> 100 µM	> 100 µM	–	> 100 µM	> 100 µM	> 100 µM	> 100 µM	> 100 µM	> 100 µM	> 100 µM	> 100 µM	> 100 µM	–	> 100 µM	> 100 µM	–
Nn1c(CCCCCCCCc2nnc(COc3ccc4ccccc4c3O)n2N)nnc1COc1ccc2ccccc2c1O	> 100 µM	> 100 µM	> 100 µM	> 100 µM	> 100 µM	> 100 µM	–	> 100 µM	49.4 µM	78.4 µM	> 100 µM	> 100 µM	41.6 µM	> 100 µM	–	98.1 µM	> 100 µM	> 100 µM	67.7 µM	42 µM
O=c1[nH]/c(=C/c2ccc(OCc3ccccc3)cn2)c(=O)[nH]/c1=C/c1ccc(F)cc1	30 µM	> 100 µM	> 50 µM	> 76.2 µM	> 34.8 µM	> 42.6 µM	–	> 32.4 µM	> 40.9 µM	> 32.1 µM	> 51.8 µM	> 34.4 µM	> 50.4 µM	> 82.1 µM	> 47 µM	> 27.5 µM	4.73 µM	> 60.1 µM	> 40.3 µM	9.06 µM
Nc1ccc2c(=O)cc(-c3cccs3)[nH]c2n1	> 100 µM	> 100 µM	> 37.5 µM	> 100 µM	> 100 µM	> 60.4 µM	0.671 µM	> 72 µM	> 100 µM	> 54.8 µM	> 100 µM	> 35.5 µM	> 26.3 µM	> 100 µM	> 60.5 µM	> 53.4 µM	> 28.5 µM	26.6 µM	27.5 µM	–
Nc1nc(Cl)c(/C=N\O)c(NCC2(CO)CCC2)n1	> 100 µM	> 100 µM	> 100 µM	> 100 µM	> 100 µM	> 100 µM	–	> 100 µM	18.3 µM	–	> 100 µM	81.2 µM	> 100 µM	> 100 µM	> 100 µM	> 100 µM	> 100 µM	> 100 µM	> 100 µM	> 100 µM
CC(=O)O/C=C1/C[C@H]2[C@@H]3CCC4CC(C(C)=O)CC[C@]4(C)[C@H]3CC[C@]2(C)C1=O (some centres not stated)	> 100 µM	> 100 µM	–	> 100 µM	> 100 µM	> 100 µM	37.2 µM	> 100 µM	93.3 µM	–	> 100 µM	> 100 µM	> 100 µM	> 100 µM	–	> 100 µM	–	> 100 µM	> 100 µM	> 100 µM
COc1cccc2c1CCc1cc3c(N)nc(N)nc3nc1-2	6.13 µM	32.9 µM	7.69 µM	36.5 µM	23.8 µM	23.4 µM	–	17.3 µM	37.5 µM	20.9 µM	10.3 µM	> 100 µM	18.2 µM	32.5 µM	21.7 µM	9.91 µM	34.9 µM	9.7 µM	5.78 µM	10.8 µM
COc1ccc(P2(=S)Oc3ccccc3-c3ccccc3O2)cc1	> 100 µM	4.01 µM	> 54.9 µM	> 100 µM	> 100 µM	> 100 µM	–	–	> 100 µM	> 100 µM	> 100 µM	> 100 µM	> 100 µM	> 100 µM	> 40.6 µM	> 100 µM	> 100 µM	–	9.56 µM	–
CCC(C(=O)C(=O)C(CC)P1(=O)OC(C)(C)CN1C(C)(C)C)P1(=O)OC(C)(C)CN1C(C)(C)C (configuration not stated)	> 100 µM	> 100 µM	> 100 µM	> 100 µM	> 100 µM	> 100 µM	> 100 µM	> 100 µM	> 100 µM	> 100 µM	–	82.3 µM	> 100 µM	–	> 100 µM	> 100 µM	> 100 µM	> 100 µM	> 100 µM	> 100 µM
CCCSc1ccc2[nH]c(/N=C/c3ccccc3)cc2c1	40.1 µM	60.1 µM	–	> 100 µM	> 100 µM	> 100 µM	–	> 100 µM	–	> 100 µM	55.7 µM	55.9 µM	> 100 µM	88.2 µM	56.2 µM	–	> 100 µM	> 100 µM	–	46.2 µM

— PubChem BioAssay (NCI)
